Assay results as given in patent EP4752149A1, “OXYGEN-CONTAINING FUSED TRICYCLIC DERIVATIVE, AND PREPARATION METHOD THEREFOR AND USE THEREOF” (Tuojie Biotech (Shanghai) Co., Ltd., priority 2023, dated 2025).

Legend:
[1] = system: Ovarian cancer cells (OVCAR3); assay: Inhibitory activity against ovarian cancer cells (OVCAR3), CTG cell viability; assay type: cell-based; details: Homo sapiens, OVCAR-3, 168 h, 7 days with compound
Experimental: Ovarian cancer cells (OVCAR3) were cultured using an RPMI 1640 culture medium containing 10% FBS in a cell incubator (37 °C, 5% CO2). On day one, the cells were plated in a 384-well plate at a cell concentration of 800 cells/well and cultured overnight in an incubator. On day two, the cells were treated with compounds. The highest compound concentration was 10 µM and was diluted 3-fold to obtain 9 concentrations, and the final concentration of DMSO was 0.1%. After the cells were cultured in the incubator for another 7 days, the cell viability was tested using a CTG Cell Viability Detection Reagent (MCE); the testing method was consistent with the method provided by the kit. Data were processed using GraphPad Prism 8, and IC50 was calculated. [formula] X: the logarithm of the compound concentration; Y: inhibition%. Table 2. The IC50 (nM) of compounds of the present disclosure against OVCAR3

MCF-7/Palbo-R = assay: Inhibitory activity against CDK4/6 inhibitor-resistant human breast cancer cells (MCF-7 palbociclib-resistant cell line), cell viability; assay type: cell-based; details: Homo sapiens, MCF7, 120 h, 5 days with compound, CellTiter-Glo cell viability
Experimental: MCF-7/Palbo-R cell source: MCF7 cells (Nanjing Cobioer Biosciences Co., Ltd.) were treated with 1 µM palbociclib for a long time, and drug resistance was induced.
The palbociclib-resistant breast cancer cell line MCF-7/Palbo-R was cultured using a DMEM culture medium containing 10% FBS in a cell incubator (37 °C, 5% CO2). On day one, the cells were plated in a 384-well plate at a cell concentration of 800 cells/well and cultured overnight in an incubator. On day two, the cells were treated with compounds. The highest compound concentration was 10 µM and was diluted 3-fold to obtain 9 concentrations, and the final concentration of DMSO was 0.2%. After the cells were cultured in the incubator for another 5 days, the cell viability was tested using a CellTiter-Glo luminescent cell viability assay kit; the testing method was consistent with the method provided by the kit. Data were processed using XLfit, and IC50 was calculated.
The inhibition rates (IR) of the test compounds were calculated using the following formula: IR (%) = (1 - (RLU compound - RLU blank control) / (RLU vehicle control-RLU blank control)) × 100%. Table 16. The IC50 (nM) of a compound of the present disclosure against MCF-7/Palbo-R

## C[C@H]1COc2c(-c3nc(Nc4ccc(N5CCOCC5=O)cc4F)ncc3Cl)cc(F)c3nc(C(C)(C)O)n1c23 [Example 1, (S)-4-(4-((5-Chloro-4-(8-fluoro-2-(2-hydroxypropan-2-yl)-3-methyl-3,4-dihydro-5-oxa-1,2a-diazaacenaphthylen-6-yl)pyrimidin-2-yl)amino)-3-fluorophenyl)morpholin-3-one]
[1]
  IC50: 672 nM
MCF-7/Palbo-R
  IC50: 180 nM
